Measured values reported in patent publication US10807988B2, “3-((hetero-)aryl)-8-amino-2-oxo-1,3-diaza-spiro-[4.5]-decane derivatives” (Grünenthal GmbH, priority 2016, dated 2020).
pKi: −log10 of the molar value.

Biological target: human mu-opioid peptide (hMOP) receptor (Homo sapiens (Human), UniProt P35372)
Experiment: Human mu-opioid peptide (hMOP) receptor binding assay (SPA, [3H]naloxone displacement)

Chain of human mu-opioid peptide (hMOP) receptor (P35372 whole entry): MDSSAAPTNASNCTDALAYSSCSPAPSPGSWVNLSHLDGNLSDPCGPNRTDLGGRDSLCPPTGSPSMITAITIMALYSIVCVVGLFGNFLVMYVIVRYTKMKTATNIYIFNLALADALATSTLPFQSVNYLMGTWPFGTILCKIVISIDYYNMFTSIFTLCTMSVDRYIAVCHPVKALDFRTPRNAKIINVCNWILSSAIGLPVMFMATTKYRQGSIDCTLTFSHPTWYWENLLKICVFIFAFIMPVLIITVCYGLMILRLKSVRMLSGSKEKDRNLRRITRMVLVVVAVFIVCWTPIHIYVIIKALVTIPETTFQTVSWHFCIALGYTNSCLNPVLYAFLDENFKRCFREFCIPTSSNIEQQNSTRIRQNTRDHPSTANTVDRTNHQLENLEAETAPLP

| SMILES | pKi | hMOP % inhibition at 1 μM [%] |
| --- | --- | --- |
| CN(C)[C@]1(c2ccccc2)CC[C@]2(CC1)CN(c1cnc(C#N)nc1)C(=O)N2CCO [SC_3025, cis-5-[8-Dimethylamino-1-(2-hydroxy-ethyl)-2-oxo-8-phenyl-1,3-diazaspiro[4.5]decan-3-yl]-pyrimidine-2-carbonitrile] | 5.82 | – |
| CNC1(c2ccccc2)CCC2(CC1)CN(c1ccccc1C(N)=O)C(=O)N2 (stereo not drawn) [SC_3119, cis-2-(8-Methylamino-2-oxo-8-phenyl-1,3-diazaspiro[4.5]decan-3-yl)-benzamide] | – | 10 |
| CN(C)C1(c2nc3ccccc3n2C)CCC2(CC1)CN(c1cnc(C(F)(F)F)nc1)C(=O)N2 (stereo not drawn) [SC_3219, cis-8-Dimethylamino-8-(1-methyl-1H-benzoimidazol-2-yl)-3-[2-(trifluoromethyl)-pyrimidin-5-yl]-1,3-diazaspiro[4.5]decan-2-one] | – | 1 |
| CN(CC1CCOC1)[C@]1(c2ccccc2)CC[C@]2(CC1)CN(c1cnc(N3CCOCC3)nc1)C(=O)N2 (stereo partly drawn) [SC_3304, cis-8-[Methyl-(tetrahydro-furan-3-yl-methyl)-amino]-3-(2-morpholin-4-yl-pyrimidin-5-yl)-8-phenyl-1,3-diazaspiro[4.5]decan-2-one] | – | 4 |
| CN(CC1CCOC1)[C@]1(c2ccccc2)CC[C@]2(CC1)CN(c1cnc(N3CCOCC3)nc1)C(=O)N2 (stereo partly drawn) [SC_3305, cis-8-[Methyl-(tetrahydro-furan-3-yl-methyl)-amino]-3-(2-morpholin-4-yl-pyrimidin-5-yl)-8-phenyl-1,3-diazaspiro[4.5]decan-2-one] | – | 0 |

Biological target: human nociceptin/orphanin FQ peptide (hNOP) receptor (Homo sapiens (Human), UniProt P41146)
Experiment: not given
Format: binding

| SMILES | hNOP % inhibition at 1 μM [%] | hNOP % inhibition at 10 μM [%@10 μM] |
| --- | --- | --- |
| CN1CCN(c2ncc(N3CC4(CCC(c5ccccc5)(N(C)CC5CCOC5)CC4)NC3=O)cn2)CC1 (single isomer, unassigned; enantiomer 1) [SC_3324, cis-3-[2-(4-Methyl-piperazin-1-yl)-pyrimidin-5-yl]-8-[methyl-(tetrahydro-furan-3-yl-methyl)-amino]-8-phenyl-1,3-diazaspiro[4.5]decan-2-one (enantiomer 1)] | 12 | – |
| CN1CCN(c2ncc(N3CC4(CCC(c5ccccc5)(N(C)CC5CCOC5)CC4)NC3=O)cn2)CC1 (single isomer, unassigned; enantiomer 2) [SC_3325, cis-3-[2-(4-Methyl-piperazin-1-yl)-pyrimidin-5-yl]-8-[methyl-(tetrahydro-furan-3-yl-methyl)-amino]-8-phenyl-1,3-diazaspiro[4.5]decan-2-one (enantiomer 2)] | – | 53 |
| CNC1(c2ccccc2)CCC2(CC1)CN(c1ccccc1C(N)=O)C(=O)N2 (stereo not drawn) [SC_3119, cis-2-(8-Methylamino-2-oxo-8-phenyl-1,3-diazaspiro[4.5]decan-3-yl)-benzamide] | 22 | – |
| CCNC1(c2ccccc2)CCC2(CC1)CN(c1ccccc1C(N)=O)C(=O)N2 (stereo not drawn) [SC_3125, trans-2-(8-Ethylamino-2-oxo-8-phenyl-1,3-diazaspiro[4.5]decan-3-yl)-benzamide] | – | 3 |
| CCNC1(c2ccccc2)CCC2(CC1)CN(c1ccccc1C(N)=O)C(=O)N2 (stereo not drawn) [SC_3126, cis--2-(8-Ethylamino-2-oxo-8-phenyl-1,3-diazaspiro[4.5]decan-3-yl)-benzamide] | 0 | – |
| CCN[C@]1(c2ccccc2)CC[C@@]2(CC1)CN(c1ccccc1C#N)C(=O)N2 [SC_3127, cis-2-(8-Ethylamino-2-oxo-8-phenyl-1,3-diazaspiro[4.5]decan-3-yl)-benzonitrile] | 0 | – |
| CCN[C@]1(c2ccccc2)CC[C@]2(CC1)CN(c1ccccc1C#N)C(=O)N2 [SC_3128, cis-2-(8-Ethylamino-2-oxo-8-phenyl-1,3-diazaspiro[4.5]decan-3-yl)-benzonitrile] | 0 | – |
| CCNC1(c2ccccc2)CCC2(CC1)CN(c1ccc(C#N)cc1OC)C(=O)N2 (stereo not drawn) [SC_3134, trans-4-(8-Ethylamino-2-oxo-8-phenyl-1,3-diazaspiro[4.5]decan-3-yl)-3-methoxy-benzonitrile] | – | 3 |
| CCNC1(c2ccccc2)CCC2(CC1)CN(c1ccc(C#N)cc1OC)C(=O)N2 (stereo not drawn) [SC_3135, cis-4-(8-Ethylamino-2-oxo-8-phenyl-1,3-diazaspiro[4.5]decan-3-yl)-3-methoxy-benzonitrile] | 1 | – |
| CCN[C@]1(c2ccccc2)CC[C@]2(CC1)CN(c1cnc(C#N)nc1OC)C(=O)N2 [SC_3143, cis-5-(8-Ethylamino-2-oxo-8-phenyl-1,3-diazaspiro[4.5]decan-3-yl)-4-methoxy-pyrimidine-2-carbonitrile] | 0 | – |
| CCN[C@]1(c2ccccc2)CC[C@@]2(CC1)CN(c1cnc(C#N)nc1OC)C(=O)N2 [SC_3144, trans-5-(8-Ethylamino-2-oxo-8-phenyl-1,3-diazaspiro[4.5]decan-3-yl)-4-methoxy-pyrimidine-2-carbonitrile] | 0 | – |
| CN(C)[C@]1(Cc2ccccc2)CC[C@@]2(CC1)CN(c1cnc(N3CCOCC3)nc1)C(=O)N2 [SC_3160, trans-8-Benzyl-8-dimethylamino-3-(2-morpholin-4-yl-pyrimidin-5-yl)-1,3-diazaspiro[4.5]decan-2-one] | 4 | – |
| CN(C)C1(Cc2ccccc2)CCC2(CC1)CN(c1cnc(N3CCOCC3)nc1)C(=O)N2 (stereo not drawn) [SC_3161, cis-8-Benzyl-8-dimethylamino-3-(2-morpholin-4-yl-pyrimidin-5-yl)-1,3-diazaspiro[4.5]decan-2-one] | 2 | – |
| CN(C)C1(Cc2ccccc2)CCC2(CC1)CN(c1cnc(C(F)(F)F)nc1)C(=O)N2 (stereo not drawn) [SC_3165, cis-8-Benzyl-8-dimethylamino-3-[2-(trifluoromethyl)-pyrimidin-5-yl]-1,3-diazaspiro[4.5]decan-2-one] | 4 | – |
| CN(C)[C@]1(Cc2ccccc2)CC[C@@]2(CC1)CN(c1cnc(C(F)(F)F)nc1)C(=O)N2 [SC_3166, trans-8-Benzyl-8-dimethylamino-3-[2-(trifluoromethyl)-pyrimidin-5-yl]-1,3-diazaspiro[4.5]decan-2-one] | 3 | – |
| Cc1cc(C(F)(F)F)ncc1N1C[C@]2(CC[C@@](Cc3ccccc3)(N(C)C)CC2)NC1=O [SC_3174, trans-8-Benzyl-8-dimethylamino-3-[4-methyl-6-(trifluoromethyl)-pyridin-3-yl]-1,3-diazaspiro[4.5]decan-2-one] | 3 | – |
| Cc1cc(C(F)(F)F)ncc1N1CC2(CCC(Cc3ccccc3)(N(C)C)CC2)NC1=O (stereo not drawn) [SC_3215, cis-8-Benzyl-8-dimethylamino-3-[4-methyl-6-(trifluoromethyl)-pyridin-3-yl]-1,3-diazaspiro[4.5]decan-2-one] | 0 | – |
| CN(C)C1(c2nc3ccccc3n2C)CCC2(CC1)CN(c1cnc(C(F)(F)F)nc1)C(=O)N2 (stereo not drawn) [SC_3219, cis-8-Dimethylamino-8-(1-methyl-1H-benzoimidazol-2-yl)-3-[2-(trifluoromethyl)-pyrimidin-5-yl]-1,3-diazaspiro[4.5]decan-2-one] | 0 | – |
| CN(CC1CCOC1)[C@]1(c2ccccc2)CC[C@]2(CC1)CN(c1cnc(N3CCOCC3)nc1)C(=O)N2 (stereo partly drawn) [SC_3304, cis-8-[Methyl-(tetrahydro-furan-3-yl-methyl)-amino]-3-(2-morpholin-4-yl-pyrimidin-5-yl)-8-phenyl-1,3-diazaspiro[4.5]decan-2-one] | 9 | – |
| CN(CC1CCOC1)[C@]1(c2ccccc2)CC[C@]2(CC1)CN(c1cnc(N3CCOCC3)nc1)C(=O)N2 (stereo partly drawn) [SC_3305, cis-8-[Methyl-(tetrahydro-furan-3-yl-methyl)-amino]-3-(2-morpholin-4-yl-pyrimidin-5-yl)-8-phenyl-1,3-diazaspiro[4.5]decan-2-one] | 10 | – |
